In the NIST ThermoML archive (doi:10.1021/je300810p):
± gives the expanded uncertainty stated by the source.

Tests used:
[1] = Liquid; for mass density: 101.33 kPa, Pycnometric method
[2] = refractive index (Na D-line) (dimensionless); conditions: 101.33 kPa, Liquid, Standard Abbe refractometry

mass density ([1]; 298.15 K) | vapor or sublimation pressure ([1]; 391.43 K) | refractive index ([2]; 298.15 K) | mass density ([1]; 289.15 K) | vapor or sublimation pressure ([1]; 293.91 K) | refractive index ([2]; 293.15 K) | vapor or sublimation pressure ([1]; 351.46 K) | Compound
1049.42 ± 0.45 kg/m3 | 101.33 ± 3.4 kPa | 1.3716 ± 0.0025 | – | – | – | – | CC(=O)O [acetic acid]
– | – | – | 788.02 ± 0.36 kg/m3 | 101.33 ± 2.6 kPa | 1.3328 ± 0.0025 | – | CC=O [ethanal]
784.88 ± 0.36 kg/m3 | – | 1.3592 ± 0.0025 | – | – | – | 101.33 ± 2.6 kPa | CCO [ethanol]
